# Results taken from patent US20200170291A1, “PROCESSES FOR PRODUCING LACTITOL GRANULATES AND GRANULATES PRODUCED THEREBY” (PARTICLE DYNAMICS INTERNATIONAL, LLC, priority 2017, published 2020).
# Like-named read-outs stand apart in the source and are kept apart here.
# What was measured:
# [1] = MALVERN MASTERSIZER 2000 particle size (d10, d50, d90); type: physicochemical
# Description: All particle size (PS) analyses were conducted using a ROTAP Particle Size Analyzer and a MALVERN MASTERSIZER 2000, except as otherwise indicated. All particle size data were measured in microns and analyzed via the MALVERN MASTERSIZER 2000.
# [2] = HANSON FLODEX powder flowability (viscosity); type: physicochemical
# Text: Samples were also subjected to flowability testing using a HANSON FLODEX Powder Flowability tester. The basis for the method is the powders ability to fall freely through a hole in a plate. The diameter of the smallest hole through which the powder passes is considered the flowability index. The flowability index (radius of hole size in cm) along with the bulk density of the material tested are then used to determine the viscosity (internal friction coefficient) of the powder. Lower powder viscosity indicates better flowability.
# Samples of the finished lactitol granulations produced during execution of the commercial optimization protocol were also evaluated for flow using the HANSON Intrinsic Flowability Test. During the test, the smallest hole (in millimeters) that the product will flow through is determined in the FLODEX apparatus. Using this information and the bulk density of each powder (as determined in a 250 mL graduated cylinder) the coefficient of friction or viscosity (K) was calculated. The viscosity K (in poises) is equal to 490 (½ the acceleration of gravity) times the radius of the hole in centimeters times the bulk density of the sample. The result K is then multiplied by 100 to express the viscosity in centipoises.
# [3] = jet mill Grinding Pressure 25 PSI, Feed Injection Pressure 20 PSI
# [4] = jet mill Grinding Pressure 25 PSI, Feed Injection Pressure 40 PSI
# [5] = jet mill Grinding Pressure 25 PSI, Feed Injection Pressure 60 PSI
# [6] = jet mill Grinding Pressure 30 PSI, Feed Injection Pressure 20 PSI
# [7] = jet mill Grinding Pressure 30 PSI, Feed Injection Pressure 40 PSI
# [8] = jet mill Grinding Pressure 30 PSI, Feed Injection Pressure 60 PSI
# [9] = jet mill Grinding Pressure 35 PSI, Feed Injection Pressure 20 PSI
# [10] = jet mill Grinding Pressure 35 PSI, Feed Injection Pressure 40 PSI
# [11] = jet mill Grinding Pressure 35 PSI, Feed Injection Pressure 60 PSI
structure (smiles),measurement,setting,value
OC[C@@H](O)[C@@H](O[C@@H]1O[C@H](CO)[C@H](O)[C@H](O)[C@H]1O)[C@H](O)[C@@H](O)CO [Drum No. 29],PS d10,[1]; listed as 29,5.7 μ
same,PS d50,[1]; listed as 29,84.8 μ
same,PS d90,[1]; listed as 29,401.6 μ
same,Particle Size Span,[1]; listed as 29,4.7
OC[C@@H](O)[C@@H](O[C@@H]1O[C@H](CO)[C@H](O)[C@H](O)[C@H]1O)[C@H](O)[C@@H](O)CO [Drum No. 24],PS d10,[1]; listed as 24,5.4 μ
same,PS d50,[1]; listed as 24,53.1 μ
same,PS d90,[1]; listed as 24,289.0 μ
same,Particle Size Span,[1]; listed as 24,5.3
OC[C@@H](O)[C@@H](O[C@@H]1O[C@H](CO)[C@H](O)[C@H](O)[C@H]1O)[C@H](O)[C@@H](O)CO [Sample 2b],PS d10,[1],5.5 μ
same,PS d50,[1],56.5 μ
same,PS d90,[1],401.2 μ
same,Particle Size Span,[1],7.0
OC[C@@H](O)[C@@H](O[C@@H]1O[C@H](CO)[C@H](O)[C@H](O)[C@H]1O)[C@H](O)[C@@H](O)CO [Drum No. 28],PS d10,[1]; listed as 28,4.6 μ
same,PS d50,[1]; listed as 28,40.4 μ
same,PS d90,[1]; listed as 28,263.7 μ
same,Particle Size Span,[1]; listed as 28,6.4
OC[C@@H](O)[C@@H](O[C@@H]1O[C@H](CO)[C@H](O)[C@H](O)[C@H]1O)[C@H](O)[C@@H](O)CO [Drum No. 21],PS d10,[1]; listed as 21,5.0 μ
same,PS d50,[1]; listed as 21,50.8 μ
same,PS d90,[1]; listed as 21,290.2 μ
same,Particle Size Span,[1]; listed as 21,5.6
OC[C@@H](O)[C@@H](O[C@@H]1O[C@H](CO)[C@H](O)[C@H](O)[C@H]1O)[C@H](O)[C@@H](O)CO [Drum No. 22],PS d10,[1]; listed as 22,4.4 μ
same,PS d50,[1]; listed as 22,36.7 μ
same,PS d90,[1]; listed as 22,235.3 μ
same,Particle Size Span,[1]; listed as 22,6.3
OC[C@@H](O)[C@@H](O[C@@H]1O[C@H](CO)[C@H](O)[C@H](O)[C@H]1O)[C@H](O)[C@@H](O)CO [Drum No. 26],PS d10,[1]; listed as 26,4.4 μ
same,PS d50,[1]; listed as 26,40.8 μ
same,PS d90,[1]; listed as 26,298.4 μ
same,Particle Size Span,[1]; listed as 26,7.2
OC[C@@H](O)[C@@H](O[C@@H]1O[C@H](CO)[C@H](O)[C@H](O)[C@H]1O)[C@H](O)[C@@H](O)CO [Drum No. 33],PS d10,[1]; listed as 33,4.1 μ
same,PS d50,[1]; listed as 33,36.6 μ
same,PS d90,[1]; listed as 33,267.6 μ
same,Particle Size Span,[1]; listed as 33,7.2
OC[C@@H](O)[C@@H](O[C@@H]1O[C@H](CO)[C@H](O)[C@H](O)[C@H]1O)[C@H](O)[C@@H](O)CO [Drum No. 20],PS d10,[1]; listed as 20,4.0 μ
same,PS d50,[1]; listed as 20,33.8 μ
same,PS d90,[1]; listed as 20,209.8 μ
same,Particle Size Span,[1]; listed as 20,6.1
OC[C@@H](O)[C@@H](O[C@@H]1O[C@H](CO)[C@H](O)[C@H](O)[C@H]1O)[C@H](O)[C@@H](O)CO [jet milled lactitol],viscosity (flowability),[2],"46,905 cps"
same,"viscosity of jet milled lactitol, times higher than raw lactitol",[2],approximately 4.8 times
same,Particle Size Span,[1]; [3],4.2
same,Particle Size d10,[1]; [3],10.8 μ
same,Particle Size d50,[1]; [3],150.7 μ
same,Particle Size d90,[1]; [3],646.1 μ
same,Particle Size Span,[1]; [4],4.6
same,Particle Size d10,[1]; [4],8.5 μ
same,Particle Size d50,[1]; [4],122.9 μ
same,Particle Size d90,[1]; [4],585.1 μ
same,Particle Size Span,[1]; [5],7.2
same,Particle Size d10,[1]; [5],5.5 μ
same,Particle Size d50,[1]; [5],84.3 μ
same,Particle Size d90,[1]; [5],619.5 μ
same,Particle Size Span,[1]; [6],12.7
same,Particle Size d10,[1]; [6],4.5 μ
same,Particle Size d50,[1]; [6],47.8 μ
same,Particle Size d90,[1]; [6],615.2 μ
same,Particle Size Span,[1]; [7],13.7
same,Particle Size d10,[1]; [7],4.5 μ
same,Particle Size d50,[1]; [7],46.3 μ
same,Particle Size d90,[1]; [7],640.1 μ
same,Particle Size Span,[1]; [8],11.1
same,Particle Size d10,[1]; [8],4.5 μ
same,Particle Size d50,[1]; [8],45.6 μ
same,Particle Size d90,[1]; [8],513.0 μ
same,Particle Size Span,[1]; [9],17.5
same,Particle Size d10,[1]; [9],4.1 μ
same,Particle Size d50,[1]; [9],36.0 μ
same,Particle Size d90,[1]; [9],635.0 μ
same,Particle Size Span,[1]; [10],6.5
same,Particle Size d10,[1]; [10],5.8 μ
same,Particle Size d50,[1]; [10],83.4 μ
same,Particle Size d90,[1]; [10],548.6 μ
same,Particle Size Span,[1]; [11],5.4
same,Particle Size d10,[1]; [11],7.6 μ
same,Particle Size d50,[1]; [11],110.9 μ
same,Particle Size d90,[1]; [11],611.9 μ
OC[C@@H](O)[C@@H](O[C@@H]1O[C@H](CO)[C@H](O)[C@H](O)[C@H]1O)[C@H](O)[C@@H](O)CO [Drum No. Last],PS d10,[1]; listed as Last,4.2 μ
same,PS d50,[1]; listed as Last,39.1 μ
same,PS d90,[1]; listed as Last,341.6 μ
same,Particle Size Span,[1]; listed as Last,8.6
OC[C@@H](O)[C@@H](O[C@@H]1O[C@H](CO)[C@H](O)[C@H](O)[C@H]1O)[C@H](O)[C@@H](O)CO [Drum No. 27],PS d10,[1]; listed as 27,4.2 μ
same,PS d50,[1]; listed as 27,40.2 μ
same,PS d90,[1]; listed as 27,272.3 μ
same,Particle Size Span,[1]; listed as 27,'6.7
OC[C@@H](O)[C@@H](O[C@@H]1O[C@H](CO)[C@H](O)[C@H](O)[C@H]1O)[C@H](O)[C@@H](O)CO [Sample 1b],PS d10,[1],5.6 μ
same,PS d50,[1],56.7 μ
same,PS d90,[1],420.9 μ
same,Particle Size Span,[1],7.3
OC[C@@H](O)[C@@H](O[C@@H]1O[C@H](CO)[C@H](O)[C@H](O)[C@H]1O)[C@H](O)[C@@H](O)CO [Drum No. 25],PS d10,[1]; listed as 25,4.2 μ
same,PS d50,[1]; listed as 25,35.5 μ
same,PS d90,[1]; listed as 25,261.8 μ
same,Particle Size Span,[1]; listed as 25,7.3
OC[C@@H](O)[C@@H](O[C@@H]1O[C@H](CO)[C@H](O)[C@H](O)[C@H]1O)[C@H](O)[C@@H](O)CO [Sample 3b],PS d10,[1],7.6 μ
same,PS d50,[1],113.1 μ
same,PS d90,[1],656.4 μ
same,Particle Size Span,[1],5.7
OC[C@@H](O)[C@@H](O[C@@H]1O[C@H](CO)[C@H](O)[C@H](O)[C@H]1O)[C@H](O)[C@@H](O)CO [Proof of Concept],PS d10,[1],5.3 μ
same,PS d50,[1],60.0 μ
same,PS d90,[1],316.2 μ
same,Particle Size Span,[1],5.2
OC[C@@H](O)[C@@H](O[C@@H]1O[C@H](CO)[C@H](O)[C@H](O)[C@H]1O)[C@H](O)[C@@H](O)CO [Drum No. 37],PS d10,[1]; listed as 37,4.4 μ
same,PS d50,[1]; listed as 37,43.9 μ
same,PS d90,[1]; listed as 37,337.2 μ
same,Particle Size Span,[1]; listed as 37,7.6
